Measurements reported in PMC13288994, “Identification and characterization of novel chikungunya virus polymerase inhibitors” (Journal of Virology, 2026).
Where two headings read alike, the source gives them in different places.

Columns and labels:
[1] = tested on: CHIKV-nLuc (181/25 strain); experiment: microbe, parasite or virus in culture; type: cell-based, Chikungunya virus; settings: 5 µM, 384-well format, read 20 h after infection
VEEV-TC83-nLuc = experiment: microbe, parasite or virus in culture; type: cell-based; settings: read-out: Antiviral potency (EC50 [µM]) VEEV
SINV-GLuc = experiment: microbe, parasite or virus in culture; type: cell-based; settings: VeroE6 cells; read-out: Antiviral potency (EC50 [µM]) SINV
HPIV3-nLuc = experiment: microbe, parasite or virus in culture; type: cell-based; settings: VeroE6 cells; read-out: Antiviral potency (EC50 [µM]) HPIV3
SARS-CoV-2-nLuc = experiment: microbe, parasite or virus in culture; type: cell-based; settings: VeroE6-TMPRSS2 cells; read-out: Antiviral potency (EC50 [µM]) SARS-CoV-2
RSV A2-L19F = experiment: microbe, parasite or virus in culture; type: cell-based; settings: Hep-2 cells; read-out: Antiviral potency (EC50 [µM]) RSV
VSV-nLuc = experiment: microbe, parasite or virus in culture; type: cell-based; settings: read-out: Antiviral potency (EC50 [µM]) VSV
CHIKV-nLuc [2] = experiment: microbe, parasite or virus in culture; type: cell-based, Chikungunya virus; settings: MOI 0.1 FFU/cell, 24 hpi, in-house synthesized compound; read-out: EC50 CHIKV-nLuc, U-2 OS
CHIKV-nLuc [3] = experiment: microbe, parasite or virus in culture; type: cell-based, Chikungunya virus; settings: MOI 0.1 FFU/cell, 24 hpi, in-house synthesized compound; read-out: EC50 CHIKV-nLuc, NHDF
U-2 OS cells [4] = experiment: Cytotoxicity assay (PrestoBlue, 24 h) in U-2 OS cells; type: cell-based, Human
NHDF cells = experiment: Cytotoxicity assay (PrestoBlue, 24 h) in NHDF cells; type: cell-based, Human
Description: NHDF cells were seeded at 10,000 cells per well in 24-well plates and cultured for 24 h. Cells were then treated with threefold serial dilutions of compounds starting at 500 µM and incubated for 24 h. DMSO was included as a negative control for normalization. Following treatment, cells were incubated with PrestoBlue reagent (ThermoFisher Scientific) for 1 h at 37°C, and fluorescence was measured using a PerkinElmer Victor X5 multilabel plate reader. The CC50 values were determined by normalized non-linear regression with a variable slope model in Prism (GraphPad).

CHIKV 181/25 = experiment: Virus yield dose-response in U-2 OS cells, CHIKV; type: cell-based, Chikungunya virus
ONNV = experiment: organism not typed; type: cell-based, o'nyong-nyong virus; settings: read-out: EC50 virus production, ONNV
RRV = experiment: microbe, parasite or virus in culture; type: cell-based, Ross River virus; settings: read-out: EC50 virus production, RRV
SINV = experiment: microbe, parasite or virus in culture; type: cell-based, Sindbis virus; settings: read-out: EC50 virus production, SINV
MAYV = experiment: microbe, parasite or virus in culture; type: cell-based, Mayaro virus; settings: read-out: EC50 virus production, MAYV
SFV = experiment: microbe, parasite or virus in culture; type: cell-based, Semliki Forest virus; settings: read-out: EC50 virus production, SFV
[5] = target: T1, CHIKV trans-replicase (P1234) (Chikungunya virus, UniProt Q8JUX6); experiment: Trans-replicase assay, CHIKV; type: cell-based; settings: 100 µM, U-2 OS, 20 h
T1 construct: expression of the P1234 polyprotein drives replication of a reporter RNA template; expressed in transfected cells; host or cells: U-2 OS
Description: (§1) U-2 OS cells were seeded at 75,000 cells per well in 24-well plates and cultured for 24 h. Cells were then co-transfected with 250 ng of plasmid encoding template RNA and 250 ng of plasmid encoding P1234 WT ([72], [73]), using Lipofectamine LTX with PLUS reagent (ThermoFisher Scientific) following the manufacturer’s instructions. After 4 h of post-transfection, medium containing 100 µM of compounds or DMSO was added to the cells. Cells were then incubated for 20 h, lysed, and GLuc activity was quantified using the Dual-Luciferase Reporter Assay System (Promega). Luciferase activities were normalized to those of the DMSO-treated controls.

[6] = target: T2, ONNV trans-replicase (P1234) (O'nyong-nyong virus, UniProt P13886); experiment: Trans-replicase assay, ONNV; type: cell-based; settings: 100 µM, U-2 OS, 20 h
T2 construct: expression of the P1234 polyprotein drives replication of a reporter RNA template; expressed in transfected cells; host or cells: U-2 OS
Description: as §1

[7] = target: T3, RRV trans-replicase (P1234) (Ross river virus, UniProt P13887); experiment: Trans-replicase assay, RRV; type: cell-based; settings: 100 µM, U-2 OS, 20 h
T3 construct: expression of the P1234 polyprotein drives replication of a reporter RNA template; expressed in transfected cells; host or cells: U-2 OS
Description: as §1

[8] = target: T4, SINV trans-replicase (P1234) (Sindbis virus, UniProt P03317); experiment: Trans-replicase assay, SINV; type: cell-based; settings: 100 µM, U-2 OS, 20 h
T4 construct: expression of the P1234 polyprotein drives replication of a reporter RNA template; expressed in transfected cells; host or cells: U-2 OS
Description: as §1

[9] = target: T5, SFV trans-replicase (P1234) (Semliki forest virus, UniProt P08411); experiment: Trans-replicase assay, SFV; type: cell-based; settings: 100 µM, U-2 OS, 20 h
T5 construct: expression of the P1234 polyprotein drives replication of a reporter RNA template; expressed in transfected cells; host or cells: U-2 OS
Description: as §1

[10] = target: T6, BFV trans-replicase (P1234) (Barmah forest virus, UniProt P87515); experiment: Trans-replicase assay, BFV; type: cell-based; settings: 100 µM, U-2 OS, 20 h
T6 construct: expression of the P1234 polyprotein drives replication of a reporter RNA template; expressed in transfected cells; host or cells: U-2 OS
Description: as §1

[11] = target: EEEV trans-replicase (P1234) (Eastern equine encephalitis virus, UniProt Q306W6); type: cell-based
[12] = target: WEEV trans-replicase (P1234) (Western equine encephalitis virus, UniProt P13896); type: cell-based
[13] = target: VEEV trans-replicase (P1234) (Venezuelan equine encephalitis virus, UniProt P36328); type: cell-based
[14] = tested on: EILV trans-replicase (P1234); experiment: Trans-replicase assay, EILV; type: cell-based, Eilat virus; settings: 100 µM, U-2 OS, 20 h
Description: as §1

CHIKV-nLuc [15] = type: cell-based, Chikungunya virus; settings: 20 µM, U-2 OS, reporter read at 24 h
CHIKV replicon = settings: read-out: Antiviral potency (EC50 [µM]) CHKV replicon; replicon cells
U-2 OS cells [16] = tested on: U-2 OS cells

Sequence of VEEV trans-replicase (P1234) (P36328 1-2492 limits assumed): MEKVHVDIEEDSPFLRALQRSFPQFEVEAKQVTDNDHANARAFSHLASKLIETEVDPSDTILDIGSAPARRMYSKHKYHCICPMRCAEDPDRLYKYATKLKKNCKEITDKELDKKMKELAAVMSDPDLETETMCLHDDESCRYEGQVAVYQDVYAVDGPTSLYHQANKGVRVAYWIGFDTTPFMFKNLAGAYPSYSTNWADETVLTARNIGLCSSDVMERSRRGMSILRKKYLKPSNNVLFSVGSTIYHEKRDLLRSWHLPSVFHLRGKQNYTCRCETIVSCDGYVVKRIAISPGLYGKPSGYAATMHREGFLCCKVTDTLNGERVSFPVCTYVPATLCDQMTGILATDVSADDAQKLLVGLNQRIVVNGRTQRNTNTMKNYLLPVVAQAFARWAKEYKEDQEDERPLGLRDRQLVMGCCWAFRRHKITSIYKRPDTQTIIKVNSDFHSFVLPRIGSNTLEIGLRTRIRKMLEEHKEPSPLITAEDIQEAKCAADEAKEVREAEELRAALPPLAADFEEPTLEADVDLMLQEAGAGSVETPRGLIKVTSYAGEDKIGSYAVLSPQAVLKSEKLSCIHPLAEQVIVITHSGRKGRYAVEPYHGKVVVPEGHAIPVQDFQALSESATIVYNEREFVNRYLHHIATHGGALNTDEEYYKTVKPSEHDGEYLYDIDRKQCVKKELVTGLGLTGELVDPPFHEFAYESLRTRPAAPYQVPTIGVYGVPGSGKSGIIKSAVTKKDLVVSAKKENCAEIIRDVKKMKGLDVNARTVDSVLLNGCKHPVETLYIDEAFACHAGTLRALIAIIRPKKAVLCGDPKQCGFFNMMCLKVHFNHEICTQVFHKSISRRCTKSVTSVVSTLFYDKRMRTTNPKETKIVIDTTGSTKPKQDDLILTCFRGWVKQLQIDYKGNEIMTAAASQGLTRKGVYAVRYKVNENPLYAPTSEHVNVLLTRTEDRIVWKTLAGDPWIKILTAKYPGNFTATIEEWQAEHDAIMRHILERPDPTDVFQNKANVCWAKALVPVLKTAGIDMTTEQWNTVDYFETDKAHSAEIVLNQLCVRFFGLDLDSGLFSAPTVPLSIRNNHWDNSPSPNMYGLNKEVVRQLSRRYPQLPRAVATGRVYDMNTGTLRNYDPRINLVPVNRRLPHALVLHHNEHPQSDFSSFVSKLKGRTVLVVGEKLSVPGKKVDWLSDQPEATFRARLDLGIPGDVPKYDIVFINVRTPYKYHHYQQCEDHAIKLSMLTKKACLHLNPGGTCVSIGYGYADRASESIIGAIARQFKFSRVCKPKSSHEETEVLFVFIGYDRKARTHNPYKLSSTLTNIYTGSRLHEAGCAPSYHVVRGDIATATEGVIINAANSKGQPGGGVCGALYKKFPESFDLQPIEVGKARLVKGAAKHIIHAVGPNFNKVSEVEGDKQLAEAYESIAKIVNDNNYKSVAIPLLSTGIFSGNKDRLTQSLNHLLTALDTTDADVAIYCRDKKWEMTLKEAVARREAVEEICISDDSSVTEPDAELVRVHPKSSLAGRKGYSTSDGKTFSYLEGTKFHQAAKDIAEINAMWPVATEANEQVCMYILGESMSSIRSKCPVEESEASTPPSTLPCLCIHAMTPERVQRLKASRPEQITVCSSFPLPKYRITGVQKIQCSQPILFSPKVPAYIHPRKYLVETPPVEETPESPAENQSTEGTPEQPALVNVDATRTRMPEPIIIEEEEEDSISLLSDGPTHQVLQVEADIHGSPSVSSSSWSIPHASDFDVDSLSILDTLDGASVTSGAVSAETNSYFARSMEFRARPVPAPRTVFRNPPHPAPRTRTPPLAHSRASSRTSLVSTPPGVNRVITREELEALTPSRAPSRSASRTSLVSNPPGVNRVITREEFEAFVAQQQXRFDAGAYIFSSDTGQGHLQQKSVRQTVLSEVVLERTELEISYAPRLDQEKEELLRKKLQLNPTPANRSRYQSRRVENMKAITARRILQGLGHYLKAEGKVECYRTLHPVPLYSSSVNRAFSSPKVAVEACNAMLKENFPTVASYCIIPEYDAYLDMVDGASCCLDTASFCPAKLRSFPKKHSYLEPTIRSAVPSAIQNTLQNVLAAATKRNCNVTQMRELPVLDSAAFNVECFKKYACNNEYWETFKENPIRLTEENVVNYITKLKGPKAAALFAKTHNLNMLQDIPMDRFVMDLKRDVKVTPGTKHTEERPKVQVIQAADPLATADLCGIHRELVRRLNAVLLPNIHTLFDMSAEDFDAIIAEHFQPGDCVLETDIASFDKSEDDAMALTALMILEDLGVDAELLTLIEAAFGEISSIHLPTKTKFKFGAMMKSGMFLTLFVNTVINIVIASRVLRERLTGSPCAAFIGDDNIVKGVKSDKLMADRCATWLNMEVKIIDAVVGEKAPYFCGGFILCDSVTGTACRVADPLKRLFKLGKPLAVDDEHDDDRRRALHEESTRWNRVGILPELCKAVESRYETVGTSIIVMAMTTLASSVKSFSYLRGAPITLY
Sequence of VEEV trans-replicase (P1234) (P36328 1-535 partner limits assumed): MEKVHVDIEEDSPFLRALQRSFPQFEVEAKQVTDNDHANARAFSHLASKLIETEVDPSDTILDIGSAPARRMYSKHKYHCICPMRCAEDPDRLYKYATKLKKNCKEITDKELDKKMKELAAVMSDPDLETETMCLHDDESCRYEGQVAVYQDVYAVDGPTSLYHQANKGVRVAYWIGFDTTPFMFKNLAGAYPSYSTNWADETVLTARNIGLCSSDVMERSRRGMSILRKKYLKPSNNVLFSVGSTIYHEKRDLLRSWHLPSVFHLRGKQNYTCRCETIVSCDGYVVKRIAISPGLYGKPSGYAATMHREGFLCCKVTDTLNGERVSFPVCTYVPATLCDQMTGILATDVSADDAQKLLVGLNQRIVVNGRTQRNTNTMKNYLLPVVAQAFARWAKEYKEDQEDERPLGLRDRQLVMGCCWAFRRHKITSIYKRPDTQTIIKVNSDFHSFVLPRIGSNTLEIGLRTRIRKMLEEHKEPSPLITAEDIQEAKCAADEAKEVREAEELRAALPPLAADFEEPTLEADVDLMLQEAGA
Sequence of VEEV trans-replicase (P1234) (P36328 536-1329 partner limits assumed): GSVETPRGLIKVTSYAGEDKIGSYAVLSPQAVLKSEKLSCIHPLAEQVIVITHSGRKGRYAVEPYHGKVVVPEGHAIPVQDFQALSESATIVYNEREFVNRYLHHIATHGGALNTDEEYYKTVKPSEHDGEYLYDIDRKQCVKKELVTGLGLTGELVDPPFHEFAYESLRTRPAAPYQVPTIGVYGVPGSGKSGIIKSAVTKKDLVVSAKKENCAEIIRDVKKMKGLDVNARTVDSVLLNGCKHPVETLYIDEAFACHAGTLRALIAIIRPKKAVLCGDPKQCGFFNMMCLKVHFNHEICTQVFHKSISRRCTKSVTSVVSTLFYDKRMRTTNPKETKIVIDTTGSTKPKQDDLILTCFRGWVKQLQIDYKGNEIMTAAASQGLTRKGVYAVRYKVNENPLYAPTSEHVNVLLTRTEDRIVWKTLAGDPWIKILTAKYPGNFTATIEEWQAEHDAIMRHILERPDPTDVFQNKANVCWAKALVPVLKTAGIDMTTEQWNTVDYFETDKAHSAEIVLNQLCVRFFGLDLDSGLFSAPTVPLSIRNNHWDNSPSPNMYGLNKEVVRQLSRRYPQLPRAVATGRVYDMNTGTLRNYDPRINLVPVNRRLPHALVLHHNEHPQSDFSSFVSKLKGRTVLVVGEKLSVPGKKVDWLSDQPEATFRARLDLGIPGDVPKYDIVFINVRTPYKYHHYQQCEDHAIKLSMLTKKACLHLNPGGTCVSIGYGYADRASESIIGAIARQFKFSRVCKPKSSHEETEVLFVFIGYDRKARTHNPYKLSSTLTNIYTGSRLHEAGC

N-[2-(4-fluorophenyl)ethyl]-1,5-dimethyl-N-[(2-methylpyrazol-3-yl)methyl]pyrazole-4-sulfonamide [GAP-1146924]
Normalized percent inhibition in primary screen [1]: 91.8%
EC50 (VEEV-TC83-nLuc): 35.2 µM
EC50 (SINV-GLuc): > 100 µM
EC50 (HPIV3-nLuc): > 100 µM
EC50 (SARS-CoV-2-nLuc): > 100 µM
EC50 (RSV A2-L19F): > 10 µM
EC50 (VSV-nLuc): > 100 µM
EC50 (CHIKV-nLuc [2]): 23.4 ± 2.44 µM
EC50 (CHIKV-nLuc [3]): 9.33 µM
CC50 (U-2 OS cells [4]): > 500 µM
CC50 (NHDF cells): > 500 µM
EC50 (CHIKV 181/25; MOI 0.1, supernatant 24 hpi titered by FFA (Fig. 5), read-out: EC50 virus production, CHIKV): 16.5 ± 3.99 µM
EC50 (CHIKV 181/25; resistance study (Fig. 7), read-out: EC50 virus production, CHIKV WT): 19.7 ± 7.78 µM
EC50 (ONNV): 6.09 ± 2.2 µM
EC50 (RRV): > 100 µM
EC50 (SINV): > 100 µM
EC50 (MAYV): 13 ± 5.14 µM
EC50 (SFV): > 100 µM
Effect on RNA replication (GLuc) in trans-replicase assay, CHIKV [5]: inhibited RNA replication
Effect on RNA replication (GLuc) in trans-replicase assay, ONNV [6]: inhibited RNA replication
Effect on RNA replication (GLuc) in trans-replicase assay, RRV [7]: some GAP-1146924 inhibition
Effect on RNA replication (GLuc) in trans-replicase assay, SINV [8]: some GAP-1146924 inhibition
Effect on RNA replication (GLuc) in trans-replicase assay, SFV [9]: some GAP-1146924 inhibition
Effect on RNA replication (GLuc) in trans-replicase assay, BFV [10]: inhibited RNA replication
Effect on RNA replication (GLuc) in trans-replicase assay, EEEV [11]: some inhibition
Effect on RNA replication (GLuc) in trans-replicase assay, WEEV [12]: some inhibition
Effect on RNA replication (GLuc) in trans-replicase assay, VEEV [13]: some inhibition
Effect on RNA replication (GLuc) in trans-replicase assay, EILV [14]: some inhibition
Time-of-addition profile (stage of replication targeted) (CHIKV-nLuc [15]): act on a stage after viral entry
EC50 (CHIKV replicon): 9.2 µM
CC50 (VeroE6 cells): > 100 µM
CC50 (U-2 OS cells [16]): > 100 µM
